Source: patent publication US8415342B2, “Besifloxacin ophthalmic composition for the treatment or control of infection” (Bausch & Lomb Incorporated, priority 2008, dated 2013)
≈ marks a conversion by molar mass, not a printed value. Like-named read-outs stand apart in the source and are kept apart here.

Test system: Pathogens Associated With Bacterial Conjunctivitis
Experiment: Integrated besifloxacin MIC data from preclinical (nonclinical) studies (Table 8)
Assay type: cell-based
Settings: for MIC50: read-out: MIC50
[1] = Proteus mirabilis Quinolone-S, N 98
[2] = Serratia marcescens Quinolone-S, N 98

N[C@@H]1CCCCN(c2c(F)cc3c(=O)c(C(=O)O)cn(C4CC4)c3c2Cl)C1 [Besifloxacin, (R)-(+)-(3-amino-2,3,4,5,6,7-hexahydro-1H-azepin-1-yl)-8-chloro-1-cyclopropyl-6-fluoro-1,4,-dihydro-4-oxo-3-quinolinecarboxylic acid]
MIC90 (Moraxella species, N 30, agar dilution, read-out: MIC90): 0.13 µg/mL (≈ 0.33 µM)
MIC Range (Morganella morganii Quinolone-S, N 39): 0.03 to 2 µg/mL
MIC50 (Morganella morganii, Morganella morganii Quinolone-R, N 12): 4 µg/mL (≈ 10.2 µM)
MIC90 (Morganella morganii, Morganella morganii Quinolone-R, N 12, read-out: MIC90): 8 µg/mL (≈ 20.3 µM)
MIC90 (Morganella morganii, Morganella morganii Quinolone-S, N 39, read-out: MIC90): 1 µg/mL (≈ 2.54 µM)
MIC Range (Neisseria gonorrhoeae, N 103): 0.004 to 2 µg/mL
MIC50 (Neisseria gonorrhoeae, N 103): 0.015 µg/mL (≈ 0.0381 µM)
MIC90 (Neisseria gonorrhoeae, N 103, read-out: MIC90): 0.015 µg/mL (≈ 0.0381 µM)
MIC Range (Propionibacterium acnes, N 21, agar dilution): 0.12 to 0.25 µg/mL
MIC Range [1]: 0.25 to 4 µg/mL
MIC50 [1]: 0.5 µg/mL (≈ 1.27 µM)
MIC90 (Proteus mirabilis, Proteus mirabilis Quinolone-S, N 98, read-out: MIC90): 1 µg/mL (≈ 2.54 µM)
MIC Range (Pseudomonas aeruginosa Quinolone-S, N 49): 0.5 to 4 µg/mL
MIC50 (Pseudomonas aeruginosa, Pseudomonas aeruginosa Quinolone-R, N 51): > 8 µg/mL
MIC90 (Pseudomonas aeruginosa, Pseudomonas aeruginosa Quinolone-R, N 51, read-out: MIC90): > 8 µg/mL
MIC50 (Pseudomonas aeruginosa, Pseudomonas aeruginosa Quinolone-S, N 49): 1 µg/mL (≈ 2.54 µM)
MIC90 (Pseudomonas aeruginosa, Pseudomonas aeruginosa Quinolone-S, N 49, read-out: MIC90): 2 µg/mL (≈ 5.08 µM)
MIC90 (S. aureus, value used for PK/PD ratios of Study 424): ^aMIC90: S. aureus = 1 μg/mL.
MIC Range [2]: 0.25 to 2 µg/mL
MIC50 [2]: 1 µg/mL (≈ 2.54 µM)
MIC90 (Serratia marcescens, Serratia marcescens Quinolone-S, N 98, read-out: MIC90): 2 µg/mL (≈ 5.08 µM)
MIC Range (Staphylococcus aureus MRSA-QR, N 73): 0.25 to 8 µg/mL
MIC Range (Staphylococcus aureus MSSA-QR, N 12): 0.03 to 4 µg/mL
MIC50 (Staphylococcus aureus, MRSA, Staphylococcus aureus MRSA-QR, N 73): 1 µg/mL (≈ 2.54 µM)
MIC50 (Staphylococcus aureus, MRSA, Staphylococcus aureus MRSA-QS, N 36): 0.03 µg/mL (≈ 0.0762 µM)
MIC50 (Staphylococcus aureus, MSSA, Staphylococcus aureus MSSA-QR, N 12): 0.25 µg/mL (≈ 0.635 µM)
MIC90 (Staphylococcus aureus, MSSA, Staphylococcus aureus MSSA-QR, N 12, read-out: MIC90): 4 µg/mL (≈ 10.2 µM)
MIC50 (Staphylococcus aureus, MSSA, Staphylococcus aureus MSSA-QS, N 80): 0.03 µg/mL (≈ 0.0762 µM)
MIC90 (Staphylococcus aureus, S. aureus, value used for PK/PD ratios of Study 424, read-out: MIC90): 1 µg/mL
MIC Range (Staphylococcus epidermidis MRSE-QR, N 32): 0.25 to 8 µg/mL
MIC Range (Staphylococcus epidermidis MSSE-QR, N 5): 0.25 to 1 µg/mL
MIC Range (Staphylococcus epidermidis MSSE-QS, N 39): 0.015 to 0.06 µg/mL
MIC50 (Staphylococcus epidermidis, MRSE, Staphylococcus epidermidis MRSE-QR, N 32): 2 µg/mL (≈ 5.08 µM)
MIC50 (Staphylococcus epidermidis, MRSE, Staphylococcus epidermidis MRSE-QS, N 23): 0.03 µg/mL (≈ 0.0762 µM)
MIC50 (Staphylococcus epidermidis, Staphylococcus epidermidis MSSE-QR, N 5): 0.5 µg/mL (≈ 1.27 µM)
MIC Range (Staphylococcus hominis Quinolone-R, N 35): 0.125 to 2 µg/mL
MIC Range (Staphylococcus hominis Quinolone-S, N 15): 0.015 to 0.06 µg/mL
MIC50 (Staphylococcus hominis, Staphylococcus hominis Quinolone-S, N 15): 0.03 µg/mL (≈ 0.0762 µM)
MIC90 (Staphylococcus hominis, Staphylococcus hominis Quinolone-S, N 15, read-out: MIC90): 0.06 µg/mL (≈ 0.152 µM)
MIC Range (Staphylococcus lugdunensis Quinolone-R, N 5): 0.125 to 2 µg/mL
MIC Range (Staphylococcus lugdunensis Quinolone-S, N 10): 0.015 to 0.06 µg/mL
MIC50 (Staphylococcus lugdunensis, Staphylococcus lugdunensis Quinolone-R, N 5): 0.5 µg/mL (≈ 1.27 µM)
MIC90 (Staphylococcus lugdunensis, Staphylococcus lugdunensis Quinolone-R, N 5, read-out: MIC90): 2 µg/mL (≈ 5.08 µM)
MIC50 (Staphylococcus lugdunensis, Staphylococcus lugdunensis Quinolone-S, N 10): 0.03 µg/mL (≈ 0.0762 µM)
MIC90 (Staphylococcus lugdunensis, Staphylococcus lugdunensis Quinolone-S, N 10, read-out: MIC90): 0.06 µg/mL (≈ 0.152 µM)
MIC50 (Streptococcus mitis, Streptococcus mitis group, N 90): 0.06 µg/mL (≈ 0.152 µM)
MIC90 (Streptococcus mitis, Streptococcus mitis group, N 90, read-out: MIC90): 0.12 µg/mL (≈ 0.305 µM)
MIC Range (Streptococcus oralis, N 22): 0.03 to 2 µg/mL
MIC50 (Streptococcus oralis, N 22): 0.06 µg/mL (≈ 0.152 µM)
MIC90 (Streptococcus oralis, N 22, read-out: MIC90): 0.12 µg/mL (≈ 0.305 µM)
MIC Range (Streptococcus pneumoniae Penicillin-S, N 123): 0.015 to 1 µg/mL
MIC50 (Streptococcus pneumoniae, Streptococcus pneumoniae Penicillin-I, N 28): 0.12 µg/mL (≈ 0.305 µM)
MIC90 (Streptococcus pneumoniae, Streptococcus pneumoniae Penicillin-I, N 28, read-out: MIC90): 0.12 µg/mL (≈ 0.305 µM)
MIC50 (Streptococcus pneumoniae, Streptococcus pneumoniae Penicillin-R, N 61): 0.12 µg/mL (≈ 0.305 µM)
MIC90 (Streptococcus pneumoniae, Streptococcus pneumoniae Penicillin-R, N 61, read-out: MIC90): 0.12 µg/mL (≈ 0.305 µM)
MIC50 (Streptococcus pneumoniae, Streptococcus pneumoniae Penicillin-S, N 123): 0.12 µg/mL (≈ 0.305 µM)
MIC90 (Streptococcus pneumoniae, Streptococcus pneumoniae Penicillin-S, N 123, read-out: MIC90): 0.12 µg/mL (≈ 0.305 µM)
MIC50 (Streptococcus pneumoniae, Streptococcus pneumoniae Quinolone-R, N 23): 1 µg/mL (≈ 2.54 µM)
MIC90 (Streptococcus pneumoniae, Streptococcus pneumoniae Quinolone-R, N 23, read-out: MIC90): 4 µg/mL (≈ 10.2 µM)
MIC50 (Streptococcus pyogenes, N 201): 0.06 µg/mL (≈ 0.152 µM)
MIC90 (Streptococcus pyogenes, N 201, read-out: MIC90): 0.12 µg/mL (≈ 0.305 µM)
MIC Range (Streptococcus salivarius, N 2): 0.06 µg/mL (≈ 0.152 µM)
